Structures can show the parent of a compound that is named as a salt.
Columns and labels:
[1] = system: TGF-β; experiment: luciferase bioassay utilizing mink lung epithelial cells for total TGF-β in keloid fibroblasts culture; type: cell-based; conditions: 48-hour exposure
From the text: TGF-β is correlated with luciferase activity and reported in relative light units.

[2] = system: fibroblast cells; conditions: cited from earlier work
[3] = system: collagen; conditions: cited from earlier work
[4] = system: keloid and hypertrophic scar cells; conditions: stated to correspond to about 0.01% tamoxifen citrate; cited from earlier work

## CC/C(=C(\c1ccccc1)c1ccc(OCCN(C)C)cc1)c1ccccc1 [tamoxifen citrate]
[1]
  total TGF-β levels: dose-dependent decrease
[1]; about 8 μM
  percent reduction of TGF-β: about 75%
[1]; about 8 μM, reduced from about 200 pg/ml
  TGF-β level after treatment: about 50 pg/ml
[2]
  proliferation of normal dermal and keloid fibroblasts: decrease proliferation
[3]
  synthesis of collagen by keloid fibroblasts: decreasing the synthesis of collagen
[4]
  concentrations having a deadly effect on keloid and hypertrophic scar cells: greater than 20 μM
